What was measured:
JCV = settings: literature case reports; cited from earlier work
chikungunya virus = settings: 250 mg/day; cited from earlier work
Lyme disease = assay: Lyme Disease Case Study #2; format: in vivo, human; settings: treatments before coACT A-B, person
Source text: They worked as a full-time project manager for a non-profit food bank, and lives in the United States. Their symptoms first appeared in August of 2010. When […] was first diagnosed they had skin rashes that were not helped with topical treatments, low-grade fevers, severe migraines, continuous muscle aches, sore throat, stomach pain, joint pains, gynecological issues, and constant fatigue. The initial indication was hives on stomach and back which grew to circular rashes on both thighs, all directly following an insect bite from a horse fly.
From these professionals they were diagnosed not only with Lyme disease, but the following diagnoses and/or misdiagnoses: fibromyalgia, depression, arthritis, pinched nerve, burning mouth syndrome, and mycotoxic poisoning. By May 2011 they were confirmed with Lyme disease and subsequently reconfirmed by another physician in August 2011. Their case of Lyme disease was clinically diagnosed based on lab findings, Western Blot, and symptomatology. […] Tindamax was likewise not tolerated. […] Other anti-fungals caused pain and further reduced their energy levels.
[…] […] They reported climbing the lighthouse stairs in St. Augustine, Fla. without suffering a decrease in energy afterwards, which was atypical for them at that time. […] Kathy has stated that coACT provided them with “a few really good weeks which is invaluable when you haven't functioned normally for some time. For chronic long-term patients, I suspect additional dosing (like every few months or so) is necessary. For newcomers or uncomplicated cases, it could be a bridge to health and healing.

chikungunya disease = settings: cell culture and monkeys; cited from earlier work

Molecule | outcome of earlier treatments in patient history (Lyme disease) | other results
Nc1ccn([C@@H]2O[C@H](CO)[C@@H](O)[C@@H]2O)c(=O)n1 [Cytarabine] |  | clinical outcome in PML patients (JCV): stabilized the neurological condition of a minority of these patients
CCN(CC)CCCC(C)Nc1ccnc2cc(Cl)ccc12 (centres unmarked) [chloroquine phosphate] |  | effect on arthritis-like symptoms not relieved by aspirin and NSAID (chikungunya virus): promising results
Ivermectin | helped them to pass parasites in their stool, but left their lifeless, dizzy, and with nystagmus | 
C[C@@H]1[C@H](O)[C@@H](C)/C=C/C=C/CC/C=C/C=C/C=C/C=C/C(O[C@H]2O[C@H](C)[C@@H](O)[C@H](N)[C@@H]2O)CC2O[C@](O)(CC(O)C(O)CCC(O)CC(O)CC(O)CC(=O)O[C@H]1C)CC(O)C2C(=O)O (some centres unmarked) [Nystatin] | neither of which made any detectable difference | 
CCS(=O)(=O)CCn1c([N+](=O)[O-])cnc1C [Tindamax] | not tolerated | 
Nc1nc2c(ncn2COCCO)c(=O)[nH]1 [Acyclovir] | caused their symptoms to worsen in that they could not lift their arms | 
OC(c1cc(C(F)(F)F)nc2c(C(F)(F)F)cccc12)C1CCCCN1 (centres unmarked) [mefloquine] |  | clinical outcome in PML patients (JCV): seemed to eliminate the virus from the patient's body and prevented further neurological deterioration
CCCSc1ccc2nc(NC(=O)OC)[nH]c2c1 [Albendazole] | seemed to help them with passing parasites | 
CO/N=C(\C(=O)N[C@@H]1C(=O)N2C(C(=O)O)=C(CSc3nc(=O)c(=O)[nH]n3C)CS[C@H]12)c1csc(N)n1 [Rocephin] | helped restore their energy, but caused an allergic reaction | 
CCN(CC)CCCC(C)Nc1ccnc2cc(Cl)ccc12 (centres unmarked) [chloroquine] |  | reduction of chikungunya disease (chikungunya disease): no effect
CN1CCCN=C1/C=C/c1cccs1.O=C(O)c1cc2ccccc2c(Cc2c(O)c(C(=O)O)cc3ccccc23)c1O [Pyrantal Pamoate] | helped them to pass parasites in their stool, but left their lifeless, dizzy, and with nystagmus | 
